In patent publication US20090155784A1, “ASSESSMENT OF ASTHMA AND ALLERGEN-DEPENDENT GENE EXPRESSION” (Wyeth, priority 2007, published 2009):

System: PBMCs from healthy volunteers
Experiment: HG-U133A baseline gene expression in PBMCs of healthy volunteers (HV), cPLA2 inhibitor in the absence of allergen (no AG)
Assay type: cell-based, human
Text: PBMCs were stimulated in vitro with a cocktail containing 4 different allergens from house dust mite, ragweed and cat. Recombinant allergens, Der p1, Der f2, Fel d1 (Indoor Biotech, Charlottesville, Va.) and natural ragweed allergen (Allergy Lab, Seattle, Wash.) were selected and screened for endotoxin contamination (LAL Endotoxin Test, Catalog #HIT302, sensitivity, 0.0001 Eu/ml, Cell Sciences, Canton, Mass.). The sensitivity of the subjects was unknown but the allergens were chosen based on the estimate that 80% of allergic individuals are believed to react to one or more of these allergens. Culture medium contained RPMI-1640 (Sigma) with 10% heat inactivated FCS (Sigma St. Louis, Mo.) and 100 unit/mL Penicillin and […] Streptomycin and 0.292 mg/mL Glutamine (GIBCO RL Invitrogen, Carlsbad, Calif.). The final allergen cocktail concentrations in culture medium were: Der p1 and Der f2 (dust mite), 1 mg/ml; Fel d1 (cat), 1.25 mg/ml; ragweed, 125 mg/ml. The total level of endotoxin contamination in culture medium was 0.057 Eu/ml. The cPLA2 inhibitor 4-{3-[1-benzhydryl-5-chloro-2-(2-{[(2,6-dimethylbenzyl)sulfonyl]amino}ethyl)-1H-indol-3-yl]propyl}benzoic acid was used at a concentration of 0.3 μM/ml. Zileuton, a 5-lipoxygenase inhibitor, was added at a concentration of 5 μM. The inhibitory activity of both the cPLA2 inhibitor and Zileuton samples were verified in a human whole blood assay. After 6 days in culture approximately 200 μL of supernatant was removed using an 8-channel pipettor without disturbing the cell pellet and placed into a collection plate for cytokine ELISA assays. To the remaining cell pellet 100 μL of RLT lysis buffer containing 1% beta-mercaptoethanol was added and snap frozen for RNA purification.
RNA was purified using QIA shredders and Rneasy mini kits (Qiagen, Valencia, Calif.). PBMC pellets frozen in RLT lysis buffer containing 1% β-mercaptoethanol were thawed and processed for total RNA isolation using the QIA shredder and RNeasy mini kit. A phenol:chloroform extraction was then performed, and the RNA was repurified using the RNeasy mini kit reagents. Eluted RNA was quantified using a Spectramax96 well plate UV reader (Molecular Devices, Sunnyvale, Calif., USA) monitoring A260/280 OD values. The quality of each RNA sample was assessed by capillary electrophoresis alongside an RNA molecular weight ladder on the Agilent 2100 bioanalyzer (Agilent Technologies, Palo Alto, Calif., USA). RNA samples were assigned quality values of intact (distinct 18S and 28S bands); partially degraded (discernible 18S and 28S bands with presence of low molecular weight bands) or completely degraded (no discernible 18S and 28S bands).
Labeled targets for oligonucleotide arrays were prepared using a modification of the procedure described by Lockhart et al. (Lockhart (1996) Nat. Biotechnol. 14:1675-80). Labeled targets were hybridized to the HG-U133A Affymetrix GeneChip Array as described in the Affymetrix technical manual. Eleven biotinylated control transcripts ranging in abundance from 3 parts per million (ppm) to 100 ppm were spiked into each sample to function as a standard curve (Hill (2001) Genome Biol. 2:RESEARCH0055). GeneChip MAS 5.0 software was used to evaluate the hybridization intensity, compute the signal value for each probe set and make an absent/present call.
GeneChips were required to pass the pre-set quality control criteria that the RNA quality metric required a 5′:3′ ratio. Two asthma subjects were excluded from the study due to failure to meet the RNA quality metric and 2 GeneChips from the group treated with cPLA2a inhibitor were excluded for the same reason. The signal value for each probe set was converted into a frequency value representative of the number of transcripts present in 10^6 transcripts by reference to the standard curve (Hill (2001) Genome Biol. 2:RESEARCH0055). […]

Cc1cccc(C)c1CS(=O)(=O)NCCc1c(CCCc2ccc(C(=O)O)cc2)c2cc(Cl)ccc2n1C(c1ccccc1)c1ccccc1 [cPLA2 inhibitor, 4-{3-[1-benzhydryl-5-chloro-2-(2-{[(2,6-dimethylbenzyl)sulfonyl]amino}ethyl)-1H-indol-3-yl]propyl}benzoic acid]
Fold Change cPLA2 inhibitor vs. no AG HV (probeset 208723_at, gene USP11): 1.191 fold | Fold Change cPLA2 inhibitor vs. no AG HV (probeset 208735_s_at, gene CTDSP2): 1.214 fold | Fold Change cPLA2 inhibitor vs. no AG HV (probeset 208881_x_at, gene IDI1): 1.288 fold | Fold Change cPLA2 inhibitor vs. no AG HV (probeset 208962_s_at, gene UNK_BE540552): 1.667 fold | Fold Change cPLA2 inhibitor vs. no AG HV (probeset 208963_x_at, gene FADS1): 1.668 fold | Fold Change cPLA2 inhibitor vs. no AG HV (probeset 208992_s_at, gene STAT3): 1.161 fold | Fold Change cPLA2 inhibitor vs. no AG HV (probeset 209417_s_at, gene IFI35): 1.367 fold | Fold Change cPLA2 inhibitor vs. no AG HV (probeset 209949_at, gene NCF2): 1.229 fold | Fold Change cPLA2 inhibitor vs. no AG HV (probeset 209969_s_at, gene STAT1): 1.315 fold | Fold Change cPLA2 inhibitor vs. no AG HV (probeset 210029_at, gene INDO): 2.207 fold | Fold Change cPLA2 inhibitor vs. no AG HV (probeset 210146_x_at, gene LILRB2): 1.473 fold | Fold Change cPLA2 inhibitor vs. no AG HV (probeset 210176_at, gene TLR1): 1.302 fold | Fold Change cPLA2 inhibitor vs. no AG HV (probeset 210495_x_at, gene FN1): −16.2745 fold | Fold Change cPLA2 inhibitor vs. no AG HV (probeset 210524_x_at, gene UNK_AF078844): 1.984 fold | Fold Change cPLA2 inhibitor vs. no AG HV (probeset 210754_s_at, gene LYN): 1.482 fold | Fold Change cPLA2 inhibitor vs. no AG HV (probeset 210784_x_at, gene LILRB3): 1.348 fold | Fold Change cPLA2 inhibitor vs. no AG HV (probeset 210962_s_at, gene AKAP9): −1.163 fold | Fold Change cPLA2 inhibitor vs. no AG HV (probeset 211133_x_at, gene LILRB3): 1.349 fold | Fold Change cPLA2 inhibitor vs. no AG HV (probeset 211135_x_at, gene LILRB3): 1.416 fold | Fold Change cPLA2 inhibitor vs. no AG HV (probeset 211456_x_at, gene UNK_AF333388): 2.494 fold | Fold Change cPLA2 inhibitor vs. no AG HV (probeset 211661_x_at, gene PTAFR): 1.264 fold | Fold Change cPLA2 inhibitor vs. no AG HV (probeset 211719_x_at, gene FN1): −18.8559 fold | Fold Change cPLA2 inhibitor vs. no AG HV (probeset 212066_s_at, gene USP34): −1.173 fold | Fold Change cPLA2 inhibitor vs. no AG HV (probeset 212185_x_at, gene MT2A): 2.359 fold | Fold Change cPLA2 inhibitor vs. no AG HV (probeset 212274_at, gene UNK_AV705559): 1.2259 fold | Fold Change cPLA2 inhibitor vs. no AG HV (probeset 212318_at, gene TNPO3): 1.195 fold | Fold Change cPLA2 inhibitor vs. no AG HV (probeset 212464_s_at, gene FN1): −16.6219 fold | Fold Change cPLA2 inhibitor vs. no AG HV (probeset 212859_x_at, gene MT2A): 2.114 fold | Fold Change cPLA2 inhibitor vs. no AG HV (probeset 212907_at, gene SLC30A1): 1.527 fold | Fold Change cPLA2 inhibitor vs. no AG HV (probeset 213571_s_at, gene EIF4EL3): 1.18 fold | Fold Change cPLA2 inhibitor vs. no AG HV (probeset 213629_x_at, gene MT1F): 1.953 fold | Fold Change cPLA2 inhibitor vs. no AG HV (probeset 213716_s_at, gene SECTM1): 1.603 fold | Fold Change cPLA2 inhibitor vs. no AG HV (probeset 214038_at, gene UNK_AI984980): 2.289 fold | Fold Change cPLA2 inhibitor vs. no AG HV (probeset 214179_s_at, gene NFE2L1): 1.302 fold | Fold Change cPLA2 inhibitor vs. no AG HV (probeset 214730_s_at, gene GLG1): 1.22 fold | Fold Change cPLA2 inhibitor vs. no AG HV (probeset 215051_x_at, gene AIF1): 1.464 fold | Fold Change cPLA2 inhibitor vs. no AG HV (probeset 215223_s_at, gene SOD2): 1.584 fold | Fold Change cPLA2 inhibitor vs. no AG HV (probeset 216336_x_at, gene UNK_AL031602): 1.748 fold | Fold Change cPLA2 inhibitor vs. no AG HV (probeset 216442_x_at, gene FN1): −15.6848 fold | Fold Change cPLA2 inhibitor vs. no AG HV (probeset 216841_s_at, gene SOD2): 1.463 fold | Fold Change cPLA2 inhibitor vs. no AG HV (probeset 217165_x_at, gene MT1F): 2.496 fold | Fold Change cPLA2 inhibitor vs. no AG HV (probeset 217965_s_at, gene HCNGP): 1.185 fold | Fold Change cPLA2 inhibitor vs. no AG HV (probeset 218154_at, gene FLJ12150): 1.267 fold | Fold Change cPLA2 inhibitor vs. no AG HV (probeset 218472_s_at, gene PELO): 1.163 fold | Fold Change cPLA2 inhibitor vs. no AG HV (probeset 219159_s_at, gene SLAMF7): 1.736 fold | Fold Change cPLA2 inhibitor vs. no AG HV (probeset 219519_s_at, gene SN): 2.441 fold | Fold Change cPLA2 inhibitor vs. no AG HV (probeset 219788_at, gene PILRA): 1.371 fold | Fold Change cPLA2 inhibitor vs. no AG HV (probeset 221165_s_at, gene IL22): 1.835 fold | Fold Change cPLA2 inhibitor vs. no AG HV (probeset 221558_s_at, gene LEF1): −1.137 fold | Fold Change cPLA2 inhibitor vs. no AG HV (probeset 221581_s_at, gene WBSCR5): 1.343 fold | Fold Change cPLA2 inhibitor vs. no AG HV (probeset 222218_s_at, gene PILRA): 1.292 fold
